# Data reported in patent US4163839A, “Isocoformycin and a process for the production thereof” (priority 1977, dated 1979).
# Read-outs that look alike come from different tables or passages of the source.
# Tests used:
# Takadiastase-Y = test: Inhibition of Takadiastase-Y deamination (decrease in optical density); type: biochemical; details: at 45° C., 2 min, read-out: ID50 (the source's name)
# Method: (§1) The novel compound of the present invention, isocoformycin (III), is useful because of its ability to inhibit strongly the deamination of formycin, adenine arabinoside and cordycepin by the adenosine deaminase present in mammals and birds. The inhibitory activities of isocoformycin on adenosine deaminase were measured using formycin and adenosine as the substrate. Three ml of a solution of adenosine or formycin in 0.05 M phosphate buffer (12 mg/ml, pH 7.5 and 6.5, respectively) was put in a quartz cell of 1 cm in length and 0.1 ml of a solution containing a known amount of isocoformycin in distilled water was added. The reaction was started by addition of 0.1 ml of enzyme solution (adenosine deaminase from calf intestine: 1 mg/ml of 0.025 M ammonium acetate or Takadiastase-Y: 4 mg/ml of distilled water) and the decreases for 2 minutes in optical densities at 265 nm in the case of adenosine or 295 nm in the case of formycin were recorded on Beckmann spectrophotometer equipped with the Gilford recorder. The concentration of the inhibitor for 50% inhibition (ID50) was calculated from the difference of the optical densities as shown in Table 1.
# [1] = target: T1, adenosine deaminase from calf intestine (Bos taurus, UniProt P56658); test: Inhibition of adenosine deaminase from calf intestine (decrease in optical density); type: biochemical; details: at 25° C., read-out: ID50 (the source's name)
# T1 construct: from tissue; host or cells: calf intestine
# T1 sequence (P56658 1-363): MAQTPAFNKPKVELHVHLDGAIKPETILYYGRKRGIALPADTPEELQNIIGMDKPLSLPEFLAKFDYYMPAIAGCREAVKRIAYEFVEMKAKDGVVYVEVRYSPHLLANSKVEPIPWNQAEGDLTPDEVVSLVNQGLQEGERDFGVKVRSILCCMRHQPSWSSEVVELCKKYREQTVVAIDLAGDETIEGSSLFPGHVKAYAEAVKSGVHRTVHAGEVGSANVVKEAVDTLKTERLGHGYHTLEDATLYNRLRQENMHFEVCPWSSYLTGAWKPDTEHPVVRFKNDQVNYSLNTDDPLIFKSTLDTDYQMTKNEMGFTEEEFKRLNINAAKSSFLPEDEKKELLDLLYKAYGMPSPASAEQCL
# Method: as §1
# [2] = tested on: mouse leukemia L-1210 cells; test: Inhibition of multiplication of L-1210 cells in tissue culture (Lowry method); type: cell-based
# Excerpt: The isocoformycin is also useful as a strong synergist of formcyin and adenine arabinoside for their antitumor activities. […] The inhibitory effect of formycin with or without isocoformycin on multiplication of the mouse leukemia L-1210 cells measured by the Lowry method [O. H. Lowry, N. J. Rosenbrough, A. L. Farr and R. J. Randall, J. Biol. Chem., 193, 265 (1951)] is directed in Table 2.
# [3] = tested on: mouse leukemia L-1210 cells; test: Survival period of mice implanted with L-1210 cells; type: in vivo
# Method: Each dose was injected i.p. 2 hrs. after implantation of 10^5 L-1210 cells once a day for 10 days.
# "S. period" is the mean survival time in days.
# "T/C" is the ratio of the mean survival time of the treated (with drug) animals versus the control's (no drug) and is expressed as a percentage.
# Escherichia coli NIHJ = test: Disc method on nutrient agar against Escherichia coli NIHJ; type: cell-based; details: for Diameter (inhibition diameter): disc 8 mm, medium containing formycin 50 μg/ml
# [4] = formycin 50 μg/m i.p. once a day for 10 days, isocoformycin 0
# [5] = isocoformycin 1.5 μg/m i.p. once a day for 10 days, without formycin
# [6] = isocoformycin 1.5 μg/m with formycin 50 μg/m, i.p. once a day for 10 days
# [7] = isocoformycin 3.1 μg/m i.p. once a day for 10 days, without formycin
# [8] = isocoformycin 3.1 μg/m with formycin 50 μg/m, i.p. once a day for 10 days
# [9] = isocoformycin 6.2 μg/m i.p. once a day for 10 days, without formycin
# [10] = isocoformycin 6.2 μg/m with formycin 50 μg/m, i.p. once a day for 10 days
# [11] = isocoformycin 12.5 μg/m i.p. once a day for 10 days, without formycin
# [12] = isocoformycin 12.5 μg/m with formycin 50 μg/m, i.p. once a day for 10 days
# [13] = isocoformycin 25 μg/m i.p. once a day for 10 days, without formycin
# [14] = isocoformycin 25 μg/m with formycin 50 μg/m, i.p. once a day for 10 days
# [15] = isocoformycin 50 μg/m i.p. once a day for 10 days, without formycin
# [16] = isocoformycin 50 μg/m with formycin 50 μg/m, i.p. once a day for 10 days
structure (smiles),measurement,setting,value
"OCC1NC=Nc2c1ncn2[C@@H]1O[C@H](CO)[C@@H](O)[C@H]1O (stereo partly drawn) [9-β-D-ribofuranosyl-6-hydroxymethyl-1,6-dihydropurine, reference compound]",IC50,"Takadiastase-Y; substrate adenosine, pH 7.5",280000 nM
same,IC50,"Takadiastase-Y; substrate formycin, pH 6.5",200000 nM
same,IC50,"[1]; substrate adenosine, pH 7.5",5800 nM
same,IC50,"[1]; substrate formycin, pH 6.5",2600 nM
"Nc1ncnc2c([C@@H]3O[C@H](CO)[C@@H](O)[C@H]3O)[nH]nc12 [Formycin, formycin]",inhibition at 0.2 µg/mL,"[2]; Mus musculus, L1210",8%
same,T/C %,[3]; [4],122%
same,s.period (mean survival time),[3]; [4],10.5 days
"OC[C@H]1O[C@@H](n2cnc3c2N=CNC(O)C3)[C@H](O)[C@@H]1O (stereo partly drawn) [Isocoformycin, 3-β-D-ribofuranosyl-3,6,7,8-tetrahydroimidazo[4,5-d][1,3]-diazepin-7-ol]",Diameter (inhibition diameter),Escherichia coli NIHJ; isocoformycin 2.5 μg/ml,22.0 mm
same,Diameter (inhibition diameter),Escherichia coli NIHJ; isocoformycin 10 μg/ml,25.0 mm
same,Diameter (inhibition diameter),Escherichia coli NIHJ; isocoformycin 40 μg/ml,32.0 mm
same,Diameter (inhibition diameter),Escherichia coli NIHJ; isocoformycin 200 μg/ml,36.0 mm
same,inhibitory activity against Escherichia coli NIHJ,"Escherichia coli NIHJ; without formycin, isocoformycin 2 mg/ml",no inhibitory activity
same,IC50,"Takadiastase-Y; substrate adenosine, pH 7.5",1100 nM
same,IC50,"Takadiastase-Y; substrate formycin, pH 6.5",2000 nM
same,inhibition at 0.2 µg/mL,"[2]; Mus musculus, L1210, isocoformycin 0.20 μg/ml, formycin 0.0, read-out: Inhibition (%)",0%
same,inhibition at 0.5 µg/mL,"[2]; Mus musculus, L1210, isocoformycin 0.50 μg/ml, formycin 0.0",-4%
same,Inhibition (%),[2]; isocoformycin 0.20 μg/ml with formycin 0.20 μg/ml,42%
same,Inhibition (%),[2]; isocoformycin 0.50 μg/ml with formycin 0.20 μg/ml,55%
same,synergistic effect with formycin in the inhibition of cell multiplication,"[2]; tissue cultures, with formycin",strong synergistic effect
same,IC50,"[1]; substrate adenosine, pH 7.5",86 nM
same,IC50,"[1]; substrate formycin, pH 6.5",35 nM
same,prolongation in the survival period,[3]; formycin combined with isocoformycin intraperitoneally,marked prolongation
same,T/C %,[3]; [5],93%
same,s.period (mean survival time),[3]; [5],8.0 days
same,T/C %,[3]; [6],145%
same,s.period (mean survival time),[3]; [6],12.5 days
same,T/C %,[3]; [7],105%
same,s.period (mean survival time),[3]; [7],9.0 days
same,T/C %,[3]; [8],163%
same,s.period (mean survival time),[3]; [8],14.0 days
same,T/C %,[3]; [9],99%
same,s.period (mean survival time),[3]; [9],9.0 days
same,T/C %,[3]; [10],140%
same,s.period (mean survival time),[3]; [10],12.0 days
same,T/C %,[3]; [11],116%
same,s.period (mean survival time),[3]; [11],8.5 days
same,T/C %,[3]; [12],163%
same,s.period (mean survival time),[3]; [12],14.0 days
same,T/C %,[3]; [13],93%
same,s.period (mean survival time),[3]; [13],10.0 days
same,T/C %,[3]; [14],174%
same,s.period (mean survival time),[3]; [14],15.0 days
same,T/C %,[3]; [15],93%
same,s.period (mean survival time),[3]; [15],8.0 days
same,T/C %,[3]; [16],174%
same,s.period (mean survival time),[3]; [16],15.0 days
